Measured values taken from the supplement of paper PMC10307832.

Legend:
Assay in all cases: relative viability (nuclei count vs DMSO), 5 days (fraction); higher = more cells survive
FH535 + Phenformin = compound: CC1=C(C=CC(=C1)[N+](=O)[O-])NS(=O)(=O)C2=C(C=CC(=C2)Cl)Cl [FH535] + N=C(N)NC(=N)NCCc1ccccc1 [Phenformin] (partner 250 µM)
Summary of the method: (§1)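 Values are medians from duplicate plates. Each reflects relative viability, defined as the nuclei count of treated wells over that of vehicle wells. Lung cancer cell lines in 1536-well plates were pin-tool dosed one day after seeding with one drug alone or with a fixed anchor-drug dose plus five library-drug doses (not always all listed) in √10 steps, then fixed, stained and imaged at 4× after 5 days.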

FH535 + Decitabine = compound: CC1=C(C=CC(=C1)[N+](=O)[O-])NS(=O)(=O)C2=C(C=CC(=C2)Cl)Cl [FH535] + Nc1ncn([C@H]2C[C@H](O)[C@@H](CO)O2)c(=O)n1 [Decitabine] (partner 2 µM)
Summary of the method: as §1

FH535 + Linsitinib = compound: CC1=C(C=CC(=C1)[N+](=O)[O-])NS(=O)(=O)C2=C(C=CC(=C2)Cl)Cl [FH535] + C[C@]1(O)C[C@@H](c2nc(-c3ccc4ccc(-c5ccccc5)nc4c3)c3c(N)nccn32)C1 [Linsitinib] (partner 1 µM)
Summary of the method: as §1

FH535 + AZD7762 = compound: CC1=C(C=CC(=C1)[N+](=O)[O-])NS(=O)(=O)C2=C(C=CC(=C2)Cl)Cl [FH535] + NC(=O)Nc1cc(-c2cccc(F)c2)sc1C(=O)N[C@H]1CCCNC1 [AZD7762] (partner 0.2 µM)
Summary of the method: as §1

FH535 + Bortezomib = compound: CC1=C(C=CC(=C1)[N+](=O)[O-])NS(=O)(=O)C2=C(C=CC(=C2)Cl)Cl [FH535] + CC(C)C[C@H](NC(=O)[C@H](Cc1ccccc1)NC(=O)c1cnccn1)B(O)O [Bortezomib] (partner 0.002 µM)
Summary of the method: as §1

Cell Line | relative viability (FH535 + Phenformin; first compound 0.04 µM) | relative viability (FH535 + Phenformin; first compound 0.1265 µM) | relative viability (FH535 + Phenformin; first compound 0.4 µM) | relative viability (FH535 + Phenformin; first compound 1.265 µM) | relative viability (FH535 + Decitabine; first compound 0.04 µM) | relative viability (FH535 + Decitabine; first compound 0.1265 µM) | relative viability (FH535 + Decitabine; first compound 0.4 µM) | relative viability (FH535 + Decitabine; first compound 1.265 µM) | relative viability (FH535 + Linsitinib; first compound 0.04 µM) | relative viability (FH535 + Linsitinib; first compound 0.1265 µM) | relative viability (FH535 + Linsitinib; first compound 0.4 µM) | relative viability (FH535 + Linsitinib; first compound 1.265 µM) | relative viability (FH535 + AZD7762; first compound 0.04 µM) | relative viability (FH535 + AZD7762; first compound 0.1265 µM) | relative viability (FH535 + AZD7762; first compound 0.4 µM) | relative viability (FH535 + AZD7762; first compound 1.265 µM) | relative viability (FH535 + Bortezomib; first compound 0.04 µM) | relative viability (FH535 + Bortezomib; first compound 0.1265 µM) | relative viability (FH535 + Bortezomib; first compound 0.4 µM) | relative viability (FH535 + Bortezomib; first compound 1.265 µM)
NCI-H1793 | 0.39 | 0.256 | 0.278 | 0.211 | 0.449 | 0.571 | 0.487 | 0.422 | 0.785 | 0.917 | 0.867 | 0.778 | 0.43 | 0.631 | 0.418 | 0.483 | – | – | – | –
NCI-H1944 | 0.17 | 0.205 | 0.161 | 0.109 | 0.391 | 0.489 | 0.414 | 0.441 | – | 1.31 | 1.22 | 1.05 | 0.316 | 0.527 | 0.588 | 0.48 | – | – | – | –
NCI-H2009 | 0.486 | 0.447 | 0.402 | 0.179 | 0.339 | 0.363 | 0.434 | 0.391 | 1.2 | 1.09 | 1.13 | 1.05 | – | – | – | – | 0.92 | 0.984 | 0.896 | 0.58
NCI-H2023 | 0.384 | 0.375 | 0.314 | 0.191 | 0.218 | 0.223 | 0.236 | 0.213 | 0.677 | 0.631 | 0.745 | 0.629 | – | – | – | – | 0.816 | 0.995 | 1.03 | 0.726
NCI-H2170 | 0.394 | 0.416 | 0.319 | 0.28 | 0.433 | 0.473 | 0.443 | 0.447 | – | – | – | – | 0.897 | 1.06 | 0.809 | 0.815 | – | – | – | –
NCI-H2228 | 0.241 | 0.377 | 0.288 | 0.224 | – | – | – | – | 0.88 | 0.668 | 0.611 | 0.385 | – | – | – | – | 0.933 | 0.81 | 0.839 | 0.829
SK-LU-1 | 0.563 | 0.622 | 0.491 | 0.305 | 0.63 | 0.517 | 0.626 | 0.44 | 1.06 | 1.17 | 1.16 | 0.678 | – | – | – | – | 0.85 | 1.19 | 1.04 | 0.926
SK-MES-1 | 0.71 | 0.614 | 0.553 | 0.385 | 0.356 | 0.347 | 0.429 | 0.386 | 1.04 | 1.15 | 1.09 | 0.948 | – | – | – | – | – | – | – | –
SW 900 | 0.569 | 0.667 | 0.48 | 0.236 | 0.443 | 0.547 | 0.418 | 0.418 | – | – | – | – | 0.42 | 0.599 | 0.403 | 0.542 | – | – | – | –
SW 1573 | 0.387 | 0.372 | 0.307 | 0.163 | 0.464 | 0.515 | 0.52 | 0.411 | 0.621 | 0.785 | 0.855 | 0.703 | – | – | – | – | 0.957 | 1.12 | 1.07 | 0.862
UMC-11 | 0.289 | 0.378 | 0.28 | 0.211 | 0.609 | 0.529 | 0.594 | 0.576 | 1.05 | 1.1 | 0.962 | 0.805 | – | – | – | – | 0.545 | 0.478 | 0.48 | 0.54
